Test results published in US20230235316A1, “MODEL FOR INSULIN RESISTANCE” (CHILDREN'S HOSPITAL MEDICAL CENTER, priority 2020, published 2023).
“Also recorded” adds a separate entry of the source.

Key:
Format in all cases: cell-based, human
fatty liver HLO [1] = experiment: Drug screening in fatty liver HLO: inflammatory gene expression; settings: HLO treated with fatty acids for 6 days; drug exposure 48 hours
Experimental: (§1) HLO were treated with fatty acids for 6 days to induce a fatty liver phenotype. Then, candidate drugs were exposed to the sHLO for 48 hours.

fatty liver HLO [2] = experiment: Drug screening in fatty liver HLO: fat accumulation; settings: HLO treated with fatty acids for 6 days; drug exposure 48 hours
Experimental: as §1

HLO = experiment: Fatty acid induction of steatohepatitis phenotype in HLOs; settings: 300 µM oleic acid for 72 hours
Excerpt: Fatty acid treatment induces a steatohepatitis phenotype in HLOs. […] DGAT½, which catalyzes the formation of triglycerides from diacylglycerol and acyl-CoA, was increased in sHLO relative to normal HLOs (FIG. 7D).

sHLO = experiment: Insulin responsiveness in sHLO (Western blot, gene expression, PCK1, glucose production)
Experimental: Insulin responsiveness in the sHLO was examined. To detect insulin responsiveness, insulin starvation of sHLO and HLO controls was performed for 24 hours, followed by insulin stimulation.
Insulin signal analysis by Western blot was performed by treating with 100 nM insulin for 20 minutes. […] Insulin responsiveness of PCK1, CREB 1, and FOXO1 was not suppressed in sHLO (FIGS. 7J-K). […] Furthermore, glucose production was not inhibited after insulin stimulation in sHLO (FIG. 7L).

HLOs = experiment: qPCR of gluconeogenesis and lipogenesis regulator genes in insulin-treated HLOs; settings: HLOs insulin-starved 24 hours, insulin 100 ng/mL for 8 hours
Experimental: (§2) Insulin responsiveness of HLOs was analyzed using Western blotting and qPCR. The prepared HLOs were cultured under insulin starvation for 24 hours and then exposed to insulin.
To analyze insulin responsiveness of gluconeogenesis and lipogenesis regulator genes in HLOs, they were treated with insulin at 100 ng/mL for 8 hours, and then RNA was extracted for qPCR. In the insulin-treated HLOs, gluconeogenesis regulatory gene expression (FOXO1, CREB1, TFE1, PCK1) was suppressed by insulin stimulation (FIG. 4B). Conversely, lipogenesis regulatory gene expression (SREBP, FASN, ACLY, ACC) was induced by insulin stimulation (FIG. 4C).

[3] = test system: AKT phosphorylation in HLOs; experiment: AKT phosphorylation in HLOs after insulin (Western blot); settings: HLOs insulin-starved 24 hours; insulin 0, 10 and 100 ng/mL for 20 minutes
Experimental: as §2
To analyze phosphorylation of AKT activated downstream of insulin signaling. HLOs were treated with insulin at 0 ng/mL, 10 ng/mL and 100 ng/mL for 20 minutes, and then proteins were extracted for Western blot.

PCK1 reporter HLOs = experiment: PCK1 reporter (mScarlet fluorescence / luciferase) HLOs
Excerpt: To visualize and quantify HLO insulin responsiveness, iPSCs were genetically edited using the CRISPR/Cas9 system to insert a reporter construct comprising mScarlet (fluorescence) and luciferase (luminescence) genes downstream of the gluconeogenesis regulatory gene PCK1, at the 3′ end in exon 10 (FIG. 5A). FIG. 5A also depicts a schematic of the reporter function. […] When gluconeogenesis is suppressed by exposure to insulin, the expression of mScarlet and luciferase also decreases in correlation with the downregulation of PCK1. […] However, it is envisioned that other reporter constructs, such as those using alternative reporters, can be used. Furthermore, alternative insulin pathway regulatory genes are depicted in FIG. 3C to be used in lieu of PCK1.
Human iPSCs were gene edited to insert the fluorescence and luminescence reporter construct to the 3′ end of PCK1. […] These gene edited iPSCs were subsequently differentiated into HLOs. […] Subsequently, 100 ng/mL of insulin was applied for 3 hours, and fluorescence and luciferase activity were measured. […] FIGS. 6C-D depicts the detection of PCK1-luciferase luminescence as measured by in vitro imaging.
The effect of insulin concentration was tested. PCK1-luciferase HLOs were starved of insulin for 24 hours and then treated with 0 nM, 10 nM, 100 nM, or 1000 nM of insulin for 1 hour for luciferase imaging.
The effect of insulin treatment time was tested. Insulin starved HLOs were treated with 100 nM of insulin for 1, 2, or 3 hours (with no insulin control).

With `CN(C)C(=N)N=C(N)N` [metformin] the “inflammatory gene expression (TNFa, NFKB1, NFKB2) / inflammatory response” value (fatty liver HLO [1]) was “limited improvement” and the fat accumulation (fatty liver HLO [2]) was “improvement”.

With `CCCCCCCC/C=C\CCCCCCCC(=O)O` [oleic acid] the fat accumulation (HLO) was “induces fat accumulation”.

With insulin the glucose production (sHLO; sHLO after insulin stimulation) was “not affected; also recorded: not inhibited”, the “insulin response of PCK1 and other gluconeogenesis genes” value (sHLO; sHLO insulin-starved 24 hours, then insulin stimulation) was “not responsive” and the “phosphorylation of AKT” value (sHLO; sHLO insulin-starved 24 hours, 100 nM insulin for 20 minutes, Western blot) was “inhibited in sHLO”. The “gluconeogenesis regulatory gene expression (FOXO1, CREB1, TFE1, PCK1)” value (HLOs) was “suppression; also recorded: suppressed”, the “lipogenesis regulatory gene expression (SREBP, FASN, ACLY, ACC)” value (HLOs) was “induction; also recorded: induced” and the AKT phosphorylation [3] was “induces AKT phosphorylation”. For the same molecule, the “PCK1-mScarlet fluorescence and luciferase activity” value (PCK1 reporter HLOs; 100 ng/mL insulin for 3 hours after treatment with cAMP) was “downregulation; also recorded: decreased”, the “luciferase activity of PCK1” value (PCK1 reporter HLOs; HLOs insulin-starved 24 hours, 10 nM, 100 nM or 1000 nM insulin for 1 hour) was “decreased” and the PCK1-luciferase activity (PCK1 reporter HLOs; cAMP-treated HLOs, 100 nM insulin for 3 hours) was “inhibited”. For the same molecule, the “luciferase activity of PCK1” value (PCK1 reporter HLOs; insulin-starved HLOs, 100 nM insulin for 1, 2 or 3 hours) was “reduced after 1 hour of treatment”.
